This assay has as its system hamster sebocytes. Briefly: Sebocyte culture test (sebum synthesis amount, Oil Red O staining). The class given is cell-based, golden hamster. As to conditions: concentration of 1×10^−5 M; microscopic observation and absorbance measurement; medium with 1×10^−6M testosterone; about 2 weeks. How it is done:
1. The test was carried out using a hamster sebocyte culture kit KB-1000 (manufactured by KURABO […] LTD.).
The sebocyte cell derived from the auricula of a normal golden hamster was inoculated in a 24-well plate in a density of 5.0×10^4 cells/well. During the test, the cell was cultured in medium containing testosterone in a concentration of 1×10^−6M.
2. The cell was cultured for several days until confluent, and the medium was exchanged with medium containing the test sample. The medium was exchanged with sample medium every other day and the culture was continued for about 2 weeks.
In this test, cow's lactoferrin was prepared to be used as the lactoferrin, and spironolactone was used as a control.
3. Then, using a sebum synthesis assay kit SE-3001 (manufactured by KURABO […], LTD.), a WST-8 solution was added to each well and incubated for 30 minutes at 37° C. The supernatant was assayed at a wavelength of 450 nm, and the number of viable cell was counted.
4. Further, the supernatant was stained with Oil Red O and observed under a microscope while extracted with 100% isopropanol and measured at a wavelength of 520 nm for the lipid synthesis amount. […]
Comparison of lipid synthesis amount per cell=absorbance B/absorbance A
Absorbance A: cell number measured value (450 nm)
Absorbance B: lipid synthesis amount measured value (520 nm)

As to `CC(=O)S[C@@H]1CC2=CC(=O)CC[C@]2(C)[C@H]2CC[C@@]3(C)[C@@H](CC[C@@]34CCC(=O)O4)[C@H]12` [spironolactone, reference compound], the “sebum synthesis amount compared with the control” value is reported as “decreased sebum synthesis amount compared with the control”.

For the origin of these results see patent US20140057840A1, “ANTI-ANDROGENIC AGENT, SEBUM SECRETION BLOCKER, HAIR GROWTH STIMULANT, AND FOOD OR BEVERAGE” (LOTTE CO., LTD., priority 2009, published 2014).
